In ChEMBL document CHEMBL1129702, “Synthesis and pharmacological profile of new 1,3-disubstituted cyclohexanes as leukotriene B4 receptor antagonists” (Bioorg Med Chem Lett, 1996):

Columns and labels:
[1] = molecular target: T1, Leukotriene B4 receptor 1 (Homo sapiens, UniProt Q15722); assay: Compound was evaluated for inhibitory activity against LTB4 receptor in human neutrophil membranes using [3H]- LTB4 as radioligand; format: cell membranes
[2] = molecular target: T1, Leukotriene B4 receptor 1; assay: Compound was evaluated for relative binding affinity against LTB4 receptor in human neutrophil membranes using [3H]- LTB4 as radioligand relative to leukotriene B4; format: cell membranes

T1 sequence (Q15722 whole entry): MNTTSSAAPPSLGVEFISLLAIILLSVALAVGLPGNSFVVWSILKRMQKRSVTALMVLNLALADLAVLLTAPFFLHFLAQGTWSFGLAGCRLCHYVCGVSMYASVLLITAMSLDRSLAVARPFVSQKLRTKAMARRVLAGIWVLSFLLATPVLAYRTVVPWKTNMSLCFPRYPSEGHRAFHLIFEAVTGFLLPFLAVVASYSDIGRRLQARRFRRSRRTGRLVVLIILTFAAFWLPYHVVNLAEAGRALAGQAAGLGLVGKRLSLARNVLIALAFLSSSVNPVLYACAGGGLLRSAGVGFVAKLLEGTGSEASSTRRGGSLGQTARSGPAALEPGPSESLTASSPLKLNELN

SMILES	IC50 [1] [µM]	relative binding affinity (RBA) [2]
CCCCCC(O)/C=C/[C@H]1CCC[C@@](O)(CCCC(=O)O)C1 (stereo not given in full)	70	–
O=C(O)C[C@]1(O)CCC[C@H](/C=C/C(O)CCCCc2ccccc2)C1 (stereo in doubt; 1d) [listing 1 of 2 here]	0.8	–
CCCCCCCCC(O)/C=C/[C@H]1CCC[C@@](O)(CC(=O)O)C1 (stereo not given in full)	1	0.008
CCCCCC(O)/C=C/[C@H]1CCC[C@@](O)(CC(=O)O)C1 (stereo not given in full)	8	0.001
O=C(O)C[C@]1(O)CCC[C@H](/C=C/C(O)CCCCc2ccccc2)C1 (stereo in doubt; 1d1) [listing 2 of 2 here]	0.3	–

Further lines, results first:

IC50 [1] [µM]	relative binding affinity (RBA) [2]	SMILES
–	0.025	O=C(O)C[C@]1(O)CCC[C@H](/C=C/C(O)CCCCc2ccccc2)C1 (stereo in doubt; 1d1) [listing 1 of 2 here]
–	0.01	O=C(O)C[C@]1(O)CCC[C@H](/C=C/C(O)CCCCc2ccccc2)C1 (stereo in doubt; 1d) [listing 2 of 2 here]
70	–	O=C(O)C[C@]1(O)CCC[C@H](/C=C/C(O)CCCCc2ccccc2)C1 (stereo in doubt; 1d2)
